{
  "source": "ChEMBL document CHEMBL2321846",
  "about": "“Aldosterone synthase inhibitors: targeting chronic kidney disease and diabetic nephropathy” (ACS Med Chem Lett, 2013)",
  "key": {"[1]": {"test_system": "estradiol production (relative to human aldosterone synthase)", "experiment": "Selectivity ratio of IC50 for estradiol production in human H295R cells to IC50 for human aldosterone synthase", "assay_type": "ADME, cell-based", "details": "read-out: Ratio IC50"}, "NCI-H295R [2]": {"test_system": "NCI-H295R", "experiment": "Inhibition of estradiol production in human NCI-H295R cells after 48 hrs by HPLC analysis", "assay_type": "functional, cell-based"}, "[3]": {"test_system": "testosterone production (relative to human aldosterone synthase)", "experiment": "Selectivity ratio of IC50 for testosterone production in human H295R cells to IC50 for human aldosterone synthase", "assay_type": "ADME, cell-based", "details": "read-out: Ratio IC50"}, "[4]": {"biological_target": "T1, Cytochrome P450 11B2, mitochondrial (Homo sapiens, UniProt P19099)", "T1 sequence (P19099 whole entry)": "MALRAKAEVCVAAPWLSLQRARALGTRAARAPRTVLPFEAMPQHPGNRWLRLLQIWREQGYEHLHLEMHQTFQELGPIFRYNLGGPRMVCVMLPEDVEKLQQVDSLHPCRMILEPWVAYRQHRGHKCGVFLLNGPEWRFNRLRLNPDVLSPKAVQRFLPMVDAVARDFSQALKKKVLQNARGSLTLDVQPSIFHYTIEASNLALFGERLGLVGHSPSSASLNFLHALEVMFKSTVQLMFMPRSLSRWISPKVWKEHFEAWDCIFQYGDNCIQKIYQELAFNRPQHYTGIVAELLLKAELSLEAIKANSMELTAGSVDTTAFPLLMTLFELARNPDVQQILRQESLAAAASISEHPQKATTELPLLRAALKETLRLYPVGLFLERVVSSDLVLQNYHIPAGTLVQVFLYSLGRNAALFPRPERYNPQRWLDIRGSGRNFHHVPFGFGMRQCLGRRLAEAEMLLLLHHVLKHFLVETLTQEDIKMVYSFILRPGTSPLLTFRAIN", "experiment": "Inhibition of human aldosterone synthase transfected in chinese hamster V79 cells after 24 hrs by LC-MS method", "assay_type": "cell-based"}, "NCI-H295R [5]": {"test_system": "NCI-H295R", "experiment": "Inhibition of testosterone production in human NCI-H295R cells after 48 hrs by HPLC analysis", "assay_type": "functional, cell-based"}},
  "data": [
    {"smiles": "CC1(C)C[C@H](c2ccc(C#N)cc2)c2cn[nH]c21", "values": [
      {"measurement": "selectivity ratio", "setting": "[1]", "result": 2640},
      {"measurement": "IC50", "setting": "NCI-H295R [2]", "result": 13.2, "unit": "µM"},
      {"measurement": "selectivity ratio", "setting": "[3]", "result": "> 6000"},
      {"measurement": "IC50", "setting": "[4]", "result": 0.005, "unit": "µM"},
      {"measurement": "IC50", "setting": "NCI-H295R [5]", "result": "> 30", "unit": "µM"}
    ]},
    {"smiles": "CC1(C)CC(c2ccc(C#N)cc2F)c2cn[nH]c21", "note": "(stereo not given)", "values": [
      {"measurement": "selectivity ratio", "setting": "[1]", "result": 3140},
      {"measurement": "IC50", "setting": "NCI-H295R [2]", "result": 22, "unit": "µM"},
      {"measurement": "selectivity ratio", "setting": "[3]", "result": "> 4280"},
      {"measurement": "IC50", "setting": "[4]", "result": 0.007, "unit": "µM"},
      {"measurement": "IC50", "setting": "NCI-H295R [5]", "result": "> 30", "unit": "µM"}
    ]}
  ]
}
